The values that follow come from PubChem BioAssay AID2772 (The Scripps Research Institute Molecular Screening Center, 2010).

Broadly, the IC50 is the point on the concentration scale where inhibition reaches its midpoint.

The target of this assay is Signal transducer and activator of transcription 1-alpha/beta (Homo sapiens) (UniProt P42224). Briefly: STAT1 reporter inhibitors in fibroblasts, late-stage follow-up, cell-based, luminescence, NIH 3T3, dose response (AID 2772). As to conditions: NIH 3T3 fibroblasts, STAT1 luciferase reporter.

Activity calls are given as the source filed them. How the calls were made is not given here.

Chain of Signal transducer and activator of transcription 1-alpha/beta (Homo sapiens) (P42224 whole entry, looked up): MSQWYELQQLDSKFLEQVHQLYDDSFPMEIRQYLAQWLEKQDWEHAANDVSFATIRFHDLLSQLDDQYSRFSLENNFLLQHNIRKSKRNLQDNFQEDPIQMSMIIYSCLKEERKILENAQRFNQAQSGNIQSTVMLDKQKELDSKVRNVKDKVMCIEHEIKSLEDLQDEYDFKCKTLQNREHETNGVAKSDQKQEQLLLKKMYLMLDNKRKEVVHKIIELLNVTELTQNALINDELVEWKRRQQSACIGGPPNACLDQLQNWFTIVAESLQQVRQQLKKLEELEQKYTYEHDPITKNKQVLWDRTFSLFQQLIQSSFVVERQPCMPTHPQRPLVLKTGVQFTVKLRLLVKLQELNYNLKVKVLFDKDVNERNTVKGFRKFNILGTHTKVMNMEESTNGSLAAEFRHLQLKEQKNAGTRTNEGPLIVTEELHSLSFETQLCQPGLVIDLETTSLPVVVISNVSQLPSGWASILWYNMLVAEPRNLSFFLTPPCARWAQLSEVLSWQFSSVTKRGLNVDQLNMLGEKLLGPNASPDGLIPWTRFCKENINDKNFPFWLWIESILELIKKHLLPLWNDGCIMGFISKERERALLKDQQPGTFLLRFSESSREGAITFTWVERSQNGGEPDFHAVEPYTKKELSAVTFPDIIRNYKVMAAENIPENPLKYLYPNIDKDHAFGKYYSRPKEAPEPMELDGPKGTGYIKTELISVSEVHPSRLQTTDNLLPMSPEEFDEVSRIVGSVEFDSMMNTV

For `CC(C(=O)Nc1ccc(F)c(F)c1)N1CCN(S(=O)(=O)c2ccc(C(F)(F)F)cc2)CC1` (centres undefined), the IC50 is > 55.7 µM (inactive).

On to `Cc1ccc(-n2nc(C(=O)O)c3ccccc3c2=O)cc1C`, for which the IC50 is > 55.7 µM (inactive).

For `COc1cc2c(cc1OC)C(=O)N(Cc1coc(-c3ccccc3)n1)C(=CN1CCOCC1)N2`, the IC50 was > 55.7 µM (inactive).

As to `CC(C(=O)Nc1ccccc1)N1CCN(S(=O)(=O)c2ccccc2)CC1` (centres undefined), the IC50 was > 55.7 µM (inactive).

Turning to `CCOC(=O)Nc1ccc2c(CSc3nc4ccccc4c(=O)[nH]3)cc(=O)oc2c1`, the IC50 is > 55.7 µM (inactive).

As to `O=C(Nc1ccc(F)cc1)C(c1ccccc1)N1CCN(C(=O)c2ccccc2)CC1` (centres undefined), the IC50 was > 55.7 µM (inactive).

As for `COc1cccc(-c2csc(Cn3c(CN4CCOCC4)nc4ccccc4c3=O)n2)c1`, the IC50 result was “inactive”.

With `O=C(O)c1nn(-c2ccc(F)cc2)c(=O)c2ccccc12`, the IC50 is > 55.7 µM (inactive).

Turning to `CN(C)Cc1nc2ccccc2c(=O)n1Cc1nc(C(C)(C)C)cs1`, the IC50 entry was “inactive”.

On to `CCC(C)c1ccc(-c2csc(CN3C(=O)c4ccccc4N/C3=C\N3CCN(C)CC3)n2)cc1` (centres undefined), for which the IC50 was > 18.6 µM (inactive).

As to `O=C(Nc1ccc(F)cc1)C(c1ccccc1)N1CCN(S(=O)(=O)c2ccc3c(c2)OCCO3)CC1` (centres undefined), the IC50 is > 55.7 µM (inactive).

With `O=C(c1ccc(-n2c(=S)[nH]c3ccccc3c2=O)cc1)N1CCN(c2ccccc2)CC1`, the IC50 is > 55.7 µM (inactive).

For `CN(C)C(=O)c1nn(-c2ccc(F)cc2)c(=O)c2ccccc12`, the IC50 is > 55.7 µM (inactive).

`Cc1ccc(NC(=O)C(c2ccccc2)N2CCN(S(=O)(=O)c3ccccc3)CC2)cc1` (centres undefined): the IC50 was > 55.7 µM (inactive).

On to `COc1cc2c(cc1OC)C(=O)N(Cc1cc(-c3ccccc3OC)no1)C(=CN1CCOCC1)N2`, for which the IC50 was > 55.7 µM (inactive).

As for `Cc1cc2oc(=O)cc(CSc3nc4ccccc4c(=O)[nH]3)c2cc1Cl`, the IC50 is > 55.7 µM (inactive).

For the compound `O=C(Nc1ccc(F)cc1)C(c1ccccc1)N1CCN(S(=O)(=O)c2ccc3ccccc3c2)CC1` (centres undefined), the IC50 is > 55.7 µM (inactive).

Consider `CCOC(=O)c1ccc(S(=O)(=O)N2CCN(C(C(=O)Nc3ccc(OC)c(Cl)c3)c3ccccc3)CC2)cc1` (centres undefined), for which the IC50 is > 55.7 µM (inactive).

In the case of `CN1CCN(Cc2nc3ccccc3c(=O)n2Cc2nc(-c3ccccc3F)cs2)CC1`, the IC50 entry was “inactive”.

Take `Cc1ccc(C)c(NC(=O)C(c2ccccc2)N2CCN(S(=O)(=O)c3ccccc3C#N)CC2)c1` (centres undefined): the IC50 was > 55.7 µM (inactive).

Turning to `CN1CCN(C(=O)c2ccc(-n3c(=S)[nH]c4ccccc4c3=O)cc2)CC1`, the IC50 was > 55.7 µM (inactive).

For `COc1cccc(NC(=O)C(c2ccccc2)N2CCN(S(=O)(=O)c3ccc(C)cc3)CC2)c1` (centres undefined), the IC50 result was “inactive”.

`O=c1cc(CSc2nc3ccccc3c(=O)[nH]2)c2ccc(O)cc2o1`: the IC50 result is “inactive”.

For `CN(Cc1ccccc1N1CCCC1)C(=O)c1nn(-c2ccccc2)c(=O)c2ccccc12`, the IC50 was > 55.7 µM (inactive).

On to `CN(C)Cc1nc2ccccc2c(=O)n1Cc1nc(-c2cccc([N+](=O)[O-])c2)cs1`, for which the IC50 was > 18.6 µM (inactive).

Turning to `O=C(c1ccc(-n2c(=S)[nH]c3ccccc3c2=O)cc1)N1CCN(C2CCCCC2)CC1`, the IC50 was > 55.7 µM (inactive).

For the compound `CCOC(=O)N1CCN(C(=O)c2ccc(-n3c(=S)[nH]c4ccccc4c3=O)cc2)CC1`, the IC50 entry is “inactive”.

Turning to `N#Cc1ccccc1S(=O)(=O)N1CCN(C(C(=O)Nc2ccc(F)cc2)c2ccccc2)CC1` (centres undefined), the IC50 is > 55.7 µM (inactive).

In the case of `N#Cc1ccc(S(=O)(=O)N2CCN(C(C(=O)Nc3ccc(F)cc3)c3ccccc3)CC2)cc1` (centres undefined), the IC50 was > 55.7 µM (inactive).

For `O=C(Nc1ccc(F)cc1)C(c1ccccc1)N1CCN(S(=O)(=O)c2ccccc2)CC1` (centres undefined), the IC50 is > 55.7 µM (inactive).

As for `CN1CCN(C=C2Nc3ccccc3C(=O)N2Cc2nc(C34CC5CC(CC(C5)C3)C4)cs2)CC1`, the IC50 is > 55.7 µM (inactive).

In the case of `Cc1ccc2oc(=O)cc(CSc3nc(-c4ccccc4)c4ccccc4n3)c2c1`, the IC50 is > 55.7 µM (inactive).

In the case of `O=C(Nc1ccc(Cl)c(C(F)(F)F)c1)C(c1ccccc1)N1CCN(S(=O)(=O)c2ccccc2)CC1` (centres undefined), the IC50 is > 55.7 µM (inactive).

For `CN1CCN(Cc2nc3ccccc3c(=O)n2Cc2nc(-c3cccc([N+](=O)[O-])c3)cs2)CC1`, the IC50 entry is “inactive”.

As for `COc1ccc(C)cc1NC(=O)C(c1ccccc1)N1CCN(S(=O)(=O)c2ccc(F)cc2)CC1` (centres undefined), the IC50 was > 55.7 µM (inactive).

For the compound `C=C1NN(c2ccc(C(=O)N3CCC(Cc4ccccc4)CC3)cc2)C(=O)c2ccccc21`, the IC50 is > 55.7 µM (inactive).

Regarding `O=C1c2ccccc2N/C(=C\N2CCOCC2)N1Cc1nc(-c2ccc(F)c(F)c2)cs1`, the IC50 result is “inactive”.

On to `CCC(C(=O)Nc1ccccc1)N1CCN(S(=O)(=O)c2ccc3c(c2)CCC3)CC1` (centres undefined), for which the IC50 was > 55.7 µM (inactive).

With `COC(=O)c1nn(-c2ccc(F)cc2)c(=O)c2ccccc12`, the IC50 is > 55.7 µM (inactive).

Regarding `O=C(c1ccc(-n2c(=S)[nH]c3ccccc3c2=O)cc1)N1CCN(C(=O)c2ccco2)CC1`, the IC50 is > 55.7 µM (inactive).

On to `CCOc1ccccc1NC(=O)C(c1ccccc1)N1CCN(S(=O)(=O)c2ccc(F)c(F)c2F)CC1` (centres undefined), for which the IC50 is > 55.7 µM (inactive).

On to `O=C1c2ccccc2N/C(=C\N2CCOCC2)N1Cc1nc(-c2ccccc2F)cs1`, for which the IC50 result was “inactive”.

`O=C(c1ccc(-n2c(=S)[nH]c3ccccc3c2=O)cc1)N1CCN(c2ccc(F)cc2)CC1`: the IC50 was > 55.7 µM (inactive).

Take `COc1ccc(N2CCN(C(=O)c3ccc(-n4c(=S)[nH]c5ccccc5c4=O)cc3)CC2)cc1`: the IC50 is > 55.7 µM (inactive).

`Cc1ccc(C)c(S(=O)(=O)N2CCN(C(C(=O)Nc3ccc(F)cc3)c3ccccc3)CC2)c1` (centres undefined): the IC50 is > 55.7 µM (inactive).

Take `COc1cc2c(cc1OC)C(=O)N(Cc1nnc(-c3ccc(Cl)cc3)o1)C(=CN1CCOCC1)N2`: the IC50 is > 55.7 µM (inactive).

`O=C(OCC1CCCCC1)c1nn(-c2ccccc2)c(=O)c2ccccc12`: the IC50 was > 55.7 µM (inactive).

`CCOc1ccc2oc(=O)cc(CSc3nc4ccccc4c(=O)[nH]3)c2c1`: the IC50 was > 55.7 µM (inactive).

In the case of `O=c1c2ccccc2nc(CN2CCOCC2)n1Cc1nc(-c2ccc[nH]2)cs1`, the IC50 result is “inactive”.

`CC(=O)c1ccc(S(=O)(=O)N2CCN(C(C(=O)Nc3ccc(C)cc3)c3ccccc3)CC2)cc1` (centres undefined): the IC50 was > 55.7 µM (inactive).

Take `CCOc1ccc(-c2csc(Cn3c(CN4CCN(C)CC4)nc4ccccc4c3=O)n2)cc1`: the IC50 is > 18.6 µM (inactive).

As to `CNC(=O)c1nn(-c2ccc(F)cc2)c(=O)c2ccccc12`, the IC50 is > 55.7 µM (inactive).

Regarding `NC(=O)c1ccc(S(=O)(=O)N2CCN(C(C(=O)Nc3ccc(F)cc3)c3ccccc3)CC2)cc1` (centres undefined), the IC50 is > 55.7 µM (inactive).

As to `Cc1ccc(-n2nc(C(=O)O)c3ccccc3c2=O)cc1Cl`, the IC50 entry is “inactive”.
